Measurements: ChEMBL document CHEMBL3885861, “Open TG-GATES”

Species on record: Rattus norvegicus
Assay: Open TG-GATES - Regimen: Single
Format: toxicity, organism-based, Sprague-Dawley
Set-up: regimen Single, gender Male, age 6 weeks
Conditions: in vivo, po, 30 mg/kg, route gavage, dose level Low; for APTT / Bas / Eos / Fbg / Hb / Ht / Lym / MCH / MCHC / MCV / Mono / Neu / PT / Plat / RBC / Ret / WBC: tissue Blood; for KIDNEY_L / KIDNEY_R / KIDNEY_TOTAL: tissue Kidney; for LIVER: tissue Liver; for A/G / ALP / ALT / AST / BUN / CRE / Ca / Cl / DBIL / GLC / IP / K / LDH / Na / PL / RALB / TBIL / TC / TG / TP / gamma-GTP: tissue Plasma

Cc1ccc(C)c(OCCCC(C)(C)C(=O)O)c1 [GEMFIBROZIL]
TERMINAL_BW (3 h): 219.6 g | APTT (3 h): 16 s | Bas (3 h): 0% | Eos (3 h): 0.6% | Fbg (3 h): 282.6 mg/dL | Hb (3 h): 14.2 g/dL | Ht (3 h): 41% | Lym (3 h): 79.2% | MCH (3 h): 22.1 pg | MCHC (3 h): 34.7% | MCV (3 h): 63.6 fL | Mono (3 h): 2.8% | Neu (3 h): 16.6% | PT (3 h): 12.4 s | Plat (3 h): 113.5 x10_4/uL | RBC (3 h): 644.2 x10_4/ul | Ret (3 h): 7% | WBC (3 h): 92.7 x10_2/uL | KIDNEY_L (3 h): 0.9 g | KIDNEY_R (3 h): 0.9 g | KIDNEY_TOTAL (3 h): 1.8 g | LIVER (3 h): 9.1 g | A/G (3 h): 0.9 | ALP (3 h): 1552.4 IU/L | ALT (3 h): 48.6 IU/L | AST (3 h): 74.6 IU/L | BUN (3 h): 11.6 mg/dL | CRE (3 h): 0.2 mg/dL | Ca (3 h): 11.2 mg/dL | Cl (3 h): 106.8 meq/L | DBIL (3 h): 0.046 mg/dL | GLC (3 h): 181 mg/dL | IP (3 h): 9.7 mg/dL | K (3 h): 4 meq/L | LDH (3 h): 60.8 IU/L | Na (3 h): 141.6 meq/L | PL (3 h): 156.2 mg/dL | RALB (3 h): 2.6 g/dL | TBIL (3 h): 0.048 mg/dL | TC (3 h): 70 mg/dL | TG (3 h): 141.4 mg/dL | TP (3 h): 5.5 g/dL | gamma-GTP (3 h): 1 IU/L | TERMINAL_BW (6 h): 221.2 g | APTT (6 h): 15.2 s | Bas (6 h): 0% | Eos (6 h): 0.6% | Fbg (6 h): 335.6 mg/dL | Hb (6 h): 14.3 g/dL | Ht (6 h): 41.1% | Lym (6 h): 78.6% | MCH (6 h): 22.1 pg | MCHC (6 h): 34.9% | MCV (6 h): 63.4 fL | Mono (6 h): 2.4% | Neu (6 h): 17.6% | PT (6 h): 12.3 s | Plat (6 h): 122 x10_4/uL | RBC (6 h): 649.2 x10_4/ul | Ret (6 h): 6.8% | WBC (6 h): 75.7 x10_2/uL | KIDNEY_L (6 h): 1 g | KIDNEY_R (6 h): 0.9 g | KIDNEY_TOTAL (6 h): 1.9 g | LIVER (6 h): 9.2 g | A/G (6 h): 0.9 | ALP (6 h): 1429.6 IU/L | ALT (6 h): 41 IU/L | AST (6 h): 75 IU/L | BUN (6 h): 10.4 mg/dL | CRE (6 h): 0.2 mg/dL | Ca (6 h): 11.3 mg/dL | Cl (6 h): 107.2 meq/L | DBIL (6 h): 0.044 mg/dL | GLC (6 h): 188 mg/dL | IP (6 h): 10.4 mg/dL | K (6 h): 4.2 meq/L | LDH (6 h): 60.6 IU/L | Na (6 h): 142.2 meq/L | PL (6 h): 150.4 mg/dL | RALB (6 h): 2.7 g/dL | TBIL (6 h): 0.054 mg/dL | TC (6 h): 77.2 mg/dL | TG (6 h): 90.2 mg/dL | TP (6 h): 5.6 g/dL | gamma-GTP (6 h): 1.6 IU/L | TERMINAL_BW (9 h): 224 g | APTT (9 h): 15 s | Bas (9 h): 0% | Eos (9 h): 0.8% | Fbg (9 h): 313 mg/dL | Hb (9 h): 13.8 g/dL | Ht (9 h): 40.2% | Lym (9 h): 76.8% | MCH (9 h): 21.3 pg | MCHC (9 h): 34.3% | MCV (9 h): 62 fL | Mono (9 h): 3.4% | Neu (9 h): 18% | PT (9 h): 12 s | Plat (9 h): 106.6 x10_4/uL | RBC (9 h): 649.2 x10_4/ul | Ret (9 h): 7.1% | WBC (9 h): 68.1 x10_2/uL | KIDNEY_L (9 h): 0.9 g | KIDNEY_R (9 h): 0.9 g | KIDNEY_TOTAL (9 h): 1.9 g | LIVER (9 h): 8.6 g | A/G (9 h): 0.9 | ALP (9 h): 1676.4 IU/L | ALT (9 h): 38 IU/L | AST (9 h): 69.2 IU/L | BUN (9 h): 11.8 mg/dL | CRE (9 h): 0.2 mg/dL | Ca (9 h): 10.9 mg/dL | Cl (9 h): 107 meq/L | DBIL (9 h): 0.046 mg/dL | GLC (9 h): 189.2 mg/dL | IP (9 h): 11.3 mg/dL | K (9 h): 3.8 meq/L | LDH (9 h): 52.8 IU/L | Na (9 h): 143.4 meq/L | PL (9 h): 147 mg/dL | RALB (9 h): 2.6 g/dL | TBIL (9 h): 0.05 mg/dL | TC (9 h): 78.6 mg/dL | TG (9 h): 66.4 mg/dL | TP (9 h): 5.4 g/dL | gamma-GTP (9 h): 1 IU/L | TERMINAL_BW (24 h): 227.1 g | APTT (24 h): 14.5 s | Bas (24 h): 0% | Eos (24 h): 1% | Fbg (24 h): 284.8 mg/dL | Hb (24 h): 13.8 g/dL | Ht (24 h): 39.8% | Lym (24 h): 75.6% | MCH (24 h): 22.3 pg | MCHC (24 h): 34.7% | MCV (24 h): 64.3 fL | Mono (24 h): 2.4% | Neu (24 h): 20.6% | PT (24 h): 12.1 s | Plat (24 h): 112.3 x10_4/uL | RBC (24 h): 620 x10_4/ul | Ret (24 h): 7.1% | WBC (24 h): 70.3 x10_2/uL | KIDNEY_L (24 h): 1 g | KIDNEY_R (24 h): 1 g | KIDNEY_TOTAL (24 h): 2 g | LIVER (24 h): 10.5 g | A/G (24 h): 0.9 | ALP (24 h): 1729.6 IU/L | ALT (24 h): 47.4 IU/L | AST (24 h): 70.4 IU/L | BUN (24 h): 16 mg/dL | CRE (24 h): 0.2 mg/dL | Ca (24 h): 11.3 mg/dL | Cl (24 h): 106.4 meq/L | DBIL (24 h): 0.044 mg/dL | GLC (24 h): 191 mg/dL | IP (24 h): 7.7 mg/dL | K (24 h): 4.5 meq/L | LDH (24 h): 63.6 IU/L | Na (24 h): 142.2 meq/L | PL (24 h): 137.6 mg/dL | RALB (24 h): 2.7 g/dL | TBIL (24 h): 0.036 mg/dL | TC (24 h): 68.6 mg/dL | TG (24 h): 100.6 mg/dL | TP (24 h): 5.6 g/dL | gamma-GTP (24 h): 0.8 IU/L
